Measured values reported in PMC10397409, “The action of physiological and synthetic steroids on the calcium channel CatSper in human sperm” (Frontiers in Cell and Developmental Biology, 2023).
Where two headings read alike, the source gives them in different places.

Key:
[1] = target: T1, CatSper (Homo sapiens, UniProt Q7RTX7+Q86XQ3+Q8NEC5+Q96P56); assay: Inhibition of PGE1-induced Ca2+ influx in human sperm (screen 2 inhibitors); format: cell-based
T1 construct: Motile spermatozoa were selected by a ‘swim-up’ procedure; endogenous in cells; host or cells: motile human spermatozoa (swim-up) from healthy donors
Protocol: (§1) Briefly, motile spermatozoa were selected by swim-up and labeled with the fluorescent calcium indicator Fluo-4 a.m. to image changes in [Ca^2+]i. After centrifugation to remove excess dye, Fluo-4 AM loaded cells were distributed in a 384-wells plate to obtain ∼125,000 cells/well. After measuring basal fluorescence, a first injection of compounds was performed in order to evaluate their effect on [Ca^2+]i alone. This first screen is therefore considered as a screen to search for ‘activators’. Fluorescence was recorded for 12 min during which sperm cells were continuously exposed to compounds. P4 or PGE1 were then added in the same wells to evaluate whether the tested compounds can reduce the ligand-induced activation of CatSper. This second screen was therefore considered to be a search for CatSper ‘inhibitors’.
(§2) Human semen samples were collected from healthy donors by masturbation after a recommended sexual abstinence period of minimum 2 days. Semen samples were allowed to liquefy at 37°C for 15–30 min. Motile spermatozoa were selected by a ‘swim-up’ procedure as previously described ([Strünker et al., 2011]). Briefly, 1 mL of semen was deposited in a 45°-inclined 50 mL Falcon tube with 4 mL of Human Tubular Fluid (HTF) medium containing: 93.8 mM NaCl, 4.7 mM KCl, 0.2 mM MgSO4, 0.37 mM KH2PO4, 2.04 mM CaCl2, 20.98 mM HEPES, 2.78 mM glucose, 21.4 mM Na-lactate, 4 mM NaHCO3, 0.33 mM Na-pyruvate, and the pH was adjusted to 7.35. Motile sperm were allowed to swim at 37°C for 1 hour. The supernatant was collected in 15 mL Falcon tubes and washed twice by centrifugation at 700 x g for 20 min. Sperm were supplemented with 3 mg/mL HSA. Written informed consent was obtained from all donors prior to donation and approved by the Cantonal Ethics Committee of the State of Geneva (CCER #14-147).
(§3) Cells were loaded with the fluorescent Ca^2+ indicator Fluo-4 AM at a final concentration of 2.5 µM for 30 min at 37°C. Excess dye was washed via centrifugation at 700 x g for 20 min and sperm were resuspended in HTF medium to obtain a final concentration of 6.25 x 10^6 cells/mL. 20 μL of cells (corresponding to ∼125,000 cells) loaded with Fluo-4 a.m. were dispensed in a 384-wells plate (Corning, NY, United States) to allow fluorescence measurement. The dye was excited at 480 nm, and emission was recorded at 530 nm. The change in [Ca^2+]i was assessed simultaneously in all wells using a Functional Drug Screening System (FDSS/μCELL) (Hamamatsu Phototonics K.K., Yokohama, Japan) at 37°C. Basal fluorescence was first measured for 30 s. […] P4 and PGE1 were tested at a near-saturating concentration in the HTS in order to evaluate a potential additive or synergistic effect induced by the compounds. Non-specific CatSper inhibitor MDL 12330A was used as a negative control at final concentration of 20 µM while DMSO was used as a vehicle control. For alkalization-induced Ca^2+ measurement, NH4Cl was used as a positive control at a final concentration of 10 mM. Fluorescence was recorded for a total of 16.5 min: 30 s before injection, 12 min after the first injection of the tested compounds, and 4 min after the second injection of either P4 or PGE1. The Prestwick library was tested in technical duplicate. Ca^2+ response curves were normalized using the following formula F−F0/F0×100 , where F 0 is the average of the basal fluorescence prior to the addition of the compound of interest and F corresponds to the fluorescence value at each time point. The ∆F/F0 of the vehicle control (DMSO) was subtracted from all the other values to adjust for dilution and pipetting artifacts. The values of all compounds were normalized to their respective controls.

[2] = target: T1, CatSper; assay: Inhibition of P4-induced Ca2+ influx in human sperm (screen 2 inhibitors); format: cell-based; details: for Max P4 inhibition (%) (± SD): 3 independent experiments
Protocol: as §1, §2, §3

[3] = target: T1, CatSper; assay: Steroid-induced increase in [Ca2+]i in human sperm (Fluo-4 HTS assay, screen 1 activators); format: cell-based; details: for Emax: read-out: Max amplitude (%) (± SD)
Protocol: as §1
Human semen samples were collected from healthy donors by masturbation after a recommended sexual abstinence period of minimum 2 days. Semen samples were allowed to liquefy at 37°C for 15–30 min. […] Motile sperm were allowed to swim at 37°C for 1 hour. The supernatant was collected in 15 mL Falcon tubes and washed twice by centrifugation at 700 x g for 20 min. Sperm were supplemented with 3 mg/mL HSA.
as §3, with “20” for “Cells were loaded with the fluorescent Ca^2+ indicator Fluo-4 AM at a final concentration of 2.5 µM for 30 min at 37°C. Excess dye was washed via centrifugation at 700 x g for 20 min and sperm were resuspended in HTF medium to obtain a final concentration of 6.25 x 10^6 cells/mL. 20”, “Non-specific CatSper inhibitor MDL 12330A was used as a negative control at final concentration of 20 µM while DMSO was used as a vehicle control.” left out, “Fluorescence was recorded for a total of 16.5 min: 30 s before injection, 12 min after the first injection of the tested compounds, and 4 min after the second injection of either P4 or PGE1.” left out
Data are shown as mean ± standard deviation (SD) with “n” referring to the number of independent experiments performed using sperm samples from ≥3 different donors. Statistical analysis and fitting of dose-response relations were performed using GraphPad Prism 8.1.1 (Prism, La Jolla, United States). To generate sigmoidal curves, the concentrations were converted to their respective log values, and the data were normalized using the following formula: 100⋅x/Fmax , where Fmax is the maximum value of the positive control. A four-parameter Hill equation with a variable Hill coefficient was fitted to generate the EC02, EC50, and IC50. Statistical significance between control and treated conditions was evaluated using a one-way analysis of variance (ANOVA), followed by Dunnett´s test. A p-value <0.05 was considered significant.

[4] = system: human sperm; assay: Sperm penetration in viscous media (modified Kremer test); format: cell-based; details: steroids 10 µM, P4 5 µM, 1 h, 1% methylcellulose
Protocol: The ability of sperm to penetrate in viscous media similar in viscosity to that found in the female reproductive tract was assessed using the modified Kremer test, as previously described ([Rahban et al., 2021]). Briefly, swim-up recovered and capacitated sperm cells at 3 x 10^6/mL were incubated in the absence (DMSO) or presence of steroids (10 µM), or P4 (5 µM) as a positive control for 1 h at 37°C. A glass capillary (0.2 × 4.0 × 50 mm, CM scientific, UK) was filled with 1% (w/v) methylcellulose (MC, 4000 centipoises cP) prepared with HTF media supplemented with 3 mg/mL HSA, respective compounds (10 µM), P4 (5 µM), or DMSO. The glass capillary tube was then sealed on one end with wax (Vitrex, UK) and added to the sperm cells on the open end. Sperm penetration was assessed after 1 h of incubation at 37°C by counting sperm at 1 cm using a microscope with a ×10 objective.

[5] = target: T1, CatSper; parameters: method as in Carlson et al., 2022b; details: ref Carlson et al., 2022b; read-out: IC50 inhibiting P4-induced response; cited from earlier work
[6] = PGE1-induced response, pooled from 3 independent experiments, read-out: Mean IC50 (PGE1) µM (±SD)
[7] = P4-induced response, pooled from 3 independent experiments, read-out: Mean IC50 (P4) µM (±SD)
[8] = maximal amplitude of steroid-induced [Ca2+]i increase, relative to P4, 3 independent experiments
[9] = pooled from 3 independent experiments, read-out: Mean EC50 µM (±SD)

Compound | IC50 [1, 6] | Max P4 inhibition (%) (± SD) [2] | IC50 [2, 7] | Emax [3, 8] | EC50 [3, 9] | further results
C[C@]12CC[C@@H]3c4ccc(OS(=O)(=O)O)cc4CC[C@H]3[C@@H]1CCC2=O [Estropipate] | 0.282 µM | 90 (±10) % | 0.28 µM | 106% | 0.159 µM | IC50 ([2]; inhibition of P4-induced Ca2+ response, dose-response 90 µM to 0.3 nM, read-out: IC50 (±SD)): 0.288 µM; effective concentrations as low as (dose-dependent increase in [Ca2+]i) [3]: 10 nM; EC50 ([3]; increase in [Ca2+]i, dose-response 90 µM to 0.3 nM, read-out: EC50 (±SD)): 0.161 µM; increase in [Ca2+]i (in words) ([3]; steroids 10 µM): highest increase in [Ca^2+]i; number of sperm penetrating viscous medium at 1 cm [4]: significant increase in cell number
C[C@]12CCC(=O)C=C1CC[C@@H]1[C@@H]2[C@@H](O)C[C@]2(C=O)[C@@H](C(=O)CO)CC[C@@H]12 [aldosterone] | – | – | – | – | – | IC50 [5]: 33.1 µM
C[C@]12CCC(=O)C=C1C=C[C@@H]1[C@@H]2CC[C@@]2(C)[C@H]1CC[C@@]2(O)CCC(=O)[O-].[K+] [canrenoic acid potassium salt] | 16.3 µM | 27 (±10) % | 23.2 µM | – | 23.4 µM | Max amplitude (%) (± SD) [3, 8]: 34 (±2) %
CC(=O)O[C@]1(C(C)=O)CC[C@H]2[C@@H]3C=C(Cl)C4=CC(=O)CC[C@]4(C)[C@H]3CC[C@@]21C [chlormadinone acetate] | 38.4 µM | 0 (±15) % | – | 4% | 34.7 µM | –
C#C[C@]1(O)CC[C@H]2[C@@H]3CCc4cc(O)ccc4[C@H]3CC[C@@]21C [ethinylestradiol] | 6.68 µM | 50 (±14) % | 3.36 µM | 69% | 1.8 µM | –
C#C[C@]1(OC(C)=O)CC[C@H]2[C@@H]3CCC4=C[C@@H](OC(C)=O)CC[C@@H]4[C@H]3CC[C@@]21C [ethynodiol diacetate] | 12.2 µM | 22 (±14) % | 13.9 µM | 35% | 17.7 µM | –
CC(C)(C)NC(=O)[C@H]1CC[C@H]2[C@@H]3CC[C@H]4NC(=O)C=C[C@]4(C)[C@H]3CC[C@]12C [finasteride] | > 100 µM | 18 (±6) % | – | 39% | 0.78 µM | –
C#C[C@]1(O)CC[C@H]2[C@@H]3CCC4=CC(=O)CC[C@@H]4[C@H]3CC[C@@]21CC [levonorgestrel] | – | – | – | – | – | IC50 [5]: 32.3 µM
C#C[C@]1(O)CC[C@H]2[C@@H]3CCC4=CCCC[C@@H]4[C@H]3CC[C@@]21C [lynestrenol] | 11.7 µM | 47 (±27) % | 9.36 µM | 59% | 17.3 µM | –
CC(=O)O[C@]1(C(C)=O)CC[C@H]2[C@@H]3C[C@H](C)C4=CC(=O)CC[C@]4(C)[C@H]3CC[C@@]21C [medroxyprogesterone acetate] | – | – | – | – | – | IC50 [5]: 6.6 µM
CC(=O)O[C@]1(C(C)=O)CC[C@H]2[C@@H]3C=C(C)C4=CC(=O)CC[C@@H]4[C@H]3CC[C@@]21C [nomegestrol acetate] | 52 µM | 12 (±17) % | 41.2 µM | 19% | 22.7 µM | –
C[C@]12C/C(=C/O)C(=O)C[C@@H]1CC[C@@H]1[C@@H]2CC[C@@]2(C)[C@H]1CC[C@]2(C)O [oxymetholone] | – | 62 (±9) % | – | – | – | IC50 [1]: 11.8 µM; IC50 ([2]; Mean IC50 (P4) µM (±SD), P4-induced response, pooled from 3 independent experiments): 4.74 µM; EC50 ([3]; Mean EC50 µM (±SD), pooled from 3 independent experiments): 1.3 µM; Emax [3]: 82%
C[C@H](CCC(=O)O)[C@H]1CC[C@H]2[C@@H]3[C@@H](O)C[C@@H]4C[C@H](O)CC[C@]4(C)[C@H]3CC[C@]12C [urosiol] | 12.2 µM | 13 (±3) % | – | – | 7.89 µM | Max amplitude (%) (± SD) [3, 8]: 25 (±8) %
